# Experimental data published in US20150274703A1, “1H-Indole-3-Carboxamide Derivatives And Use Thereof As P2Y12 Antagonists” (SANOFI, priority 2012, published 2015).
# Structures can show the parent of a compound that is named as a salt. Where two headings read alike, the source gives them in different places.
# Legend:
# [1] = tested on: platelet aggregation (human blood, platelet-rich plasma); assay: Inhibition of platelet aggregation in vitro (human blood); format: cell-based; conditions: human PRP from healthy volunteers, ADP-induced, size of aggregation as height
# Description: Inhibition of Platelet Aggregation In Vitro (Human Blood) Blood is taken from healthy volunteers, using 20 ml syringes containing 2 ml of buffered sodium citrate. The blood is transferred into polypropylene tubes and centrifuged for 5 minutes (100 g) at ambient temperature (without using the brake of the centrifuge). The platelet-rich plasma (PRP) supernatant is then removed, diluted, and counted for platelets before being used in the aggregation measurements. The platelet aggregation measurements are carried out at 37° C. in glass tubes (Chrono-Log aggregometer—Kordia). 4 μl of the test compound (solution 100 times more concentrated than the desired final concentration, in DMSO) are mixed with 392 μl of fresh PRP, and incubated for 1 minute with stirring. Then, 4 μl of a solution of ADP at 250 μM are added to the mixture. The aggregation measurements are monitored for 6 to 8 minutes, with constant stirring, by recording the variations in the optical density according to the method of G.V.R. BORN (Born Nature (1962) 194, 927). The results are calculated using the size of the aggregation expressed as height, and expressed by the percentage inhibition.
# [2] = tested on: platelet aggregation (rat blood, platelet-rich plasma); assay: Inhibition of platelet aggregation in vitro (rat blood); format: cell-based; conditions: 0.1 h, Sprague-Dawley rat PRP, area under the curve of absorbance over 6 minutes
# Description: Inhibition of Platelet Aggregation In Vitro (Rat Blood) Blood is taken from male rats of the Sprague-Dawley strain, weighing 250-300 g. The sample is taken on 3.8% sodium citrate (1 volume for 9 blood volumes) by abdominal aortic puncture after the animal has been anesthetized with sodium pentobarbital. The platelet-rich plasma (PRP) is obtained by centrifugation of the blood at 300 g for 5 minutes, and the platelet aggregation measurements are carried out as described above. The results are calculated using the area under the curve of absorbance measured for 6 minutes, and expressed by the percentage inhibition. The platelet aggregation measurements are carried out at 37° C. in glass tubes (Chrono-Log aggregometer—Kordia). 4 μl of the test compound (solution 100 times more concentrated than the desired final concentration, in DMSO) are mixed with 392 μl of fresh PRP, and incubated for 1 minute with stirring. Then, 4 μl of a solution of ADP at 250 μM are added to the mixture. The aggregation measurements are monitored for 6 to 8 minutes, with constant stirring, by recording the variations in the optical density according to the method of G.V.R. BORN (Born Nature (1962) 194, 927).
# [3] = tested on: platelet aggregation (rat blood, platelet-rich plasma); assay: Inhibition of platelet aggregation ex vivo (rat blood); format: in vivo
# Description: The platelet aggregation measurements are carried out at 37° C. in glass tubes (Chrono-Log aggregometer—Kordia). 4 μl of the test compound (solution 100 times more concentrated than the desired final concentration, in DMSO) are mixed with 392 μl of fresh PRP, and incubated for 1 minute with stirring. Then, 4 μl of a solution of ADP at 250 μM are added to the mixture. The aggregation measurements are monitored for 6 to 8 minutes, with constant stirring, by recording the variations in the optical density according to the method of G.V.R. BORN (Born Nature (1962) 194, 927). Inhibition of Platelet Aggregation Ex Vivo (Rat Blood) Male rats of the Sprague-Dawley strain, weighing 250-300 g, are used in a proportion of 6 animals per batch. Each test compound is diluted in a glucose solution (5% glucose) containing 5% of cremophor and 3% of glycofurol. […] The sample is taken on 3.8% sodium citrate (1 volume for 9 blood volumes) by abdominal aortic puncture after the animal has been anesthetized with sodium pentobarbital. The platelet-rich plasma (PRP) is obtained by centrifugation of the blood at 300 g for 5 minutes, and the platelet aggregation measurements are carried out as described above. The results are calculated using the area under the curve of absorbance measured for 6 minutes, and expressed by the percentage (%) inhibition.
# [4] = oral gavage, t = 2 h after administration, read-out: Inhibition of platelet aggregation ex vivo (rat blood), Gavage (oral)
smiles,measurement,setting,value
"CCCC(=O)c1cnn([C@H]2CC[C@H](NC(=O)c3cn(CC(=O)N4CCN(CCOC)CC4)c4ccc(Cl)cc34)CC2)c1C (as salt: hydrochloride) [Compound 2, 5-Chloro-1-{2-[4-(2-methoxyethyl)piperazin-1-yl]-2-oxoethyl}-1H-indole-3-carboxylic acid [4-(4-butyryl-5-methylpyrazol-1-yl)cyclohexyl]-amide hydrochloride]",melting point,,263 °C
"CCCC(=O)c1cnn([C@H]2CC[C@H](NC(=O)c3cn(CC(=O)N4CCN(CCC(F)(F)F)CC4)c4ccc(Cl)cc34)CC2)c1C (as salt: hydrochloride) [Compound 3, 5-Chloro-1-{2-oxo-2-[4-(3,3,3-trifluoropropyl)piperazin-1-yl]ethyl}-1H-indole-3-carboxylic acid [4-(4-butyryl-5-methylpyrazol-1-yl)cyclohexyl]amide hydrochloride]",melting point,,249 °C
"CCCC(=O)c1cnn([C@H]2CC[C@H](NC(=O)c3cn(CC(=O)N4CCN(C)CC4)c4ccc(Cl)cc34)CC2)c1C [Compound 1, 5-Chloro-1-[2-(4-methylpiperazin-1-yl)-2-oxoethyl]-1H-indole-3-carboxylic acid [4-(4-butyryl-5-methyl-pyrazol-1-yl)-cyclohexyl]amide hydrochloride]",IC50,[1],270 nM
same,IC50,[2],91 nM
same,inhibition at 3 mg/kg,"[3]; 0.5 h, intravenous infusion, 30 min after administration, read-out: Inhibition of platelet aggregation ex vivo (rat blood), Infusion (Intravenous)",79 ± 5%
same,inhibition at 3 mg/kg,[3]; [4],42.8 ± 10.7%
"CCCC(=O)c1cnn([C@H]2CC[C@H](NC(=O)c3cn(CC(=O)N4CCN(CCOC)CC4)c4ccc(Cl)cc34)CC2)c1C [Compound 2, 5-Chloro-1-{2-[4-(2-methoxyethyl)piperazin-1-yl]-2-oxoethyl}-1H-indole-3-carboxylic acid [4-(4-butyryl-5-methylpyrazol-1-yl)cyclohexyl]-amide hydrochloride]",IC50,[2],80 nM
"CCCC(=O)c1cnn([C@H]2CC[C@H](NC(=O)c3cn(CC(=O)N4CCN(CCC(F)(F)F)CC4)c4ccc(Cl)cc34)CC2)c1C [Compound 3, 5-Chloro-1-{2-oxo-2-[4-(3,3,3-trifluoropropyl)piperazin-1-yl]ethyl}-1H-indole-3-carboxylic acid [4-(4-butyryl-5-methylpyrazol-1-yl)cyclohexyl]amide hydrochloride]",IC50,[2],294 nM
"CCCC(=O)c1cnn(C2CCN(NC(=O)c3cn(CC(=O)N4CCN(C)CC4)c4ccc(Cl)cc34)CC2)c1C [Compound 4, 5 -Chloro-1-[2-(4-methylpiperazin-1-yl)-2-oxoethyl]-1H-indole-3-carboxylic acid [4-(4-butyryl-5-methylpyrazol-1-yl)piperidin-1-yl]amide hydrochloride]",IC50,[1],25 nM
same,IC50,[2],43 nM
same,inhibition at 1 mg/kg,"[3]; intravenous infusion, dose 1 mg/kg, t = 2 h after administration",88 ± 5%
same,inhibition at 3 mg/kg,[3]; [4],72 ± 15%
"CCCC(=O)c1cnn(C2CCN(NC(=O)c3cn(CC(=O)N4CCN(CCOC)CC4)c4ccc(Cl)cc34)CC2)c1C [Compound 5, 5-Chloro-1-{2-[4-(2-methoxyethyl)piperazin-1-yl]-2-oxoethyl}-1H-indole-3-carboxylic acid [4-(4-butyryl-5-methylpyrazol-1-yl-piperidin-1-yl]amide hydrochloride]",IC50,[2],17 nM
"CCCC(=O)c1cnn(C2CCN(NC(=O)c3cn(CC(=O)N4CCN(CCOC(F)(F)F)CC4)c4ccc(Cl)cc34)CC2)c1C [Compound 6, 5-Chloro-1-{2-oxo-2-[4-(2-trifluoromethoxyethyl)piperazin-1-yl]ethyl}-1H-indole-3-carboxylic acid [4-(4-butyryl-5-methylpyrazol-1-yl)piperidin-1-yl]amide hydrochloride]",IC50,[2],46 nM
